The text below walks through data of US8354447B2, “mGLU receptors antagonists for treating disorders associated with mGLU receptors including addiction and depression” (The Scripps Research Institute, priority 2002, dated 2013).

Data set [1] relates to male Wistar rats. An excerpt:
Animals were trained to respond according to a modification of the discrete-trial current-threshold procedure of Kornetsky and Esposito (Fed Proc 38:2473-2476, 1979), which has been described in detail previously (Markou and Koob, 1992 Physiol Behav 51:111-119). Briefly, a trial was initiated by the delivery of a non-contingent electrical stimulus. […] The current intensity delivered was adjusted for each animal and typically ranged from 50 to 200 μA. […] After a variable inter-trial interval (7.5-12.5 sec, average of 10 sec), another trial was initiated with the delivery of a non-contingent electrical stimulus. […] Responding during the inter-trial interval delayed the onset of the next trial by 12.5 sec. Current levels were varied in alternating descending and ascending series. A set of three trials was presented for each current intensity. Current intensities were altered in 5 μA steps. In each testing session, four alternating descending-ascending series were presented. […] The overall threshold of the session was defined as the mean of the thresholds for the four individual series. Each testing session was ˜30 min in duration. The latency between the onset of the non-contingent stimulus and a positive response was recorded as the response latency. The response latency for each test session was defined as the mean response latency of all trials during which a positive response occurred. After establishment of stable ICSS reward thresholds, rats were tested in the ICSS procedure once daily except for the spontaneous nicotine withdrawal experiment when rats were tested at time-points according to the experimental design.
Systemic administration experiments. These experiments investigated whether nicotine withdrawal, as measured by elevations in ICSS thresholds, could be precipitated in nicotine-treated rats by systemic administration of an agonist at mGluII receptors (LY314582), an agonist at GABAB receptors (CGP44532), or antagonists at mGlu5 (MPEP), NMDA (MK-801) or AMPA/Kainate (NBQX) glutamate receptors. For each drug tested, rats were trained in the ICSS paradigm until stable baseline responding was achieved, defined as ≦10% variation in thresholds for 3 consecutive days and requiring approximately 14 days of daily testing. […] One group was then prepared with subcutaneous osmotic mini-pumps delivering vehicle and the second group with mini-pumps delivering 9 mg/kg/day nicotine hydrogen tartrate (3.16 mg/kg/day nicotine free base). There was a minimum seven-day interval after mini-pump implantation, during which ICSS reward thresholds continued to be measured daily, before the effect of any systemically administered drug on reward thresholds was evaluated.

In data set [2] the test system is Wistar rats. Description: Cocaine-induced lowering of ICSS thresholds. Format: in vivo, rat.
For data set [3], the system named is male Wistar rats. Briefly: Reward deficits during amphetamine withdrawal (ICSS thresholds, response latencies, body weight). On the procedure: Male Wistar rats (Charles River, Hollister, Calif.) (300-320 g at the start of the experiments) were housed in pairs in a temperature and humidity controlled environment with a 12 hr light/dark cycle. Food and water were available ad libitum. A different set of subjects was used for each experiment. All subjects were treated in accordance with the National Institutes of Health “Guide for the Care and Use of Laboratory Animals,” and the animal facilities and the experimental protocols were in accordance with the Association for the Assessment and Accreditation of Laboratory Animal Care. Most of the behavioral testing was conducted during the light phase of the subjects' light/dark cycle, unless otherwise dictated by the experimental design due to time-course assessment of behavioral parameters. Apparatus The experimental apparatus consisted of 16 Plexiglas chambers (30.5×30×17 cm) (Med Associates Inc., St. Albans, Vt.) encased in sound-attenuating boxes (San Diego Instruments, San Diego, Calif.). Each operant chamber consisted of a stainless steel grid floor and a metal wheel manipulandum located on one wall, which required a 0.2 N force to rotate it a quarter turn. Gold-contact swivel commutators and bipolar leads connected the animals in the stimulation circuit (Plastics One, Roanoke, Va.). Brain stimulation was administered by constant current stimulators (Stimtek 1200, San Diego Instruments, San Diego, Calif.). Surgical Procedure The rats were prepared with 11 mm stainless steel bipolar electrodes (Plastics One; diameter=0.25 mm) in the posterior lateral hypothalamus (AP −0.5 mm from bregma; L±1.7 mm; DV −8.3 mm from dura, with the incisor bar set at 5 mm above the interaural line; Pellegrino et al. 1979 under halothane anaesthesia (1-1.5% halothane/oxygen mixture). Subjects were allowed to recover for at least seven days before any behavioral testing. Half of the electrodes were positioned on the right hemisphere and the other half on the left hemisphere to counterbalance possible brain asymmetries. […] The subjects were initially trained to turn the wheel manipulandum on a fixed ratio 1 schedule of reinforcement. […] The current intensity delivered was adjusted for each animal and typically ranged from 100 to 200 μA. After successful familiarization with this procedure (2 sessions of 100 reinforcers in less than 20 minutes), the rats were gradually trained on a discrete-trial, current-threshold procedure. At the start of each trial rats received a non-contingent electrical stimulus. During the following 7.5 sec, the limited hold, if the subjects responded by turning the wheel manipulandum a quarter turn (positive response) they received a second, contingent stimulus identical to the previous non-contingent stimulus. During a 2 sec period immediately following a positive response, further responses were recorded as extra responses but had no consequence. If no response occurred during the 7.5 sec limited hold period a negative response was recorded. […] Stimulation intensities were varied according to the classical psychophysical method of limits. The subjects received four alternating series of ascending and descending current intensities starting with a descending series. Within each series the stimulus intensity was altered by 5 μA steps between each set of trials (three trials per set). After training in the above procedure, rats were tested until stable baseline thresholds had been achieved L+10% over a 5-day period). […] During the ascending series, the reverse situation defined the threshold. Thus, during each session, four current-thresholds were recorded and the mean of these values was taken as the current-threshold for each subject for each test session. Response Latency: The latency between the onset of the non-contingent stimulus and a positive response was recorded as the response latency. The response latency for each test session was defined as the mean response latency of all trials during which a positive response occurred. […]

The mark [4] stands for this setting: MK-801 0.01 mg/kg i.p., Nicotine-treated rats.
The mark [5] stands for this setting: MK-801 0.01 mg/kg i.p., Vehicle-treated rats.
The mark [6] stands for this setting: MK-801 0.03 mg/kg i.p., Nicotine-treated rats.
[7] abbreviates: MK-801 0.03 mg/kg i.p., Vehicle-treated rats.
Setting [8] is: MK-801 0.1 mg/kg i.p., Nicotine-treated rats.
Setting [9] is: MK-801 0.1 mg/kg i.p., Vehicle-treated rats.
Where [10] appears, read: MK-801 0.15 mg/kg i.p., Nicotine-treated rats.
The mark [11] stands for this setting: MK-801 0.15 mg/kg i.p., Vehicle-treated rats.
[12] abbreviates: MK-801 0.175 mg/kg i.p., Nicotine-treated rats.
Where [13] appears, read: MK-801 0.175 mg/kg i.p., Vehicle-treated rats.
Where [14] appears, read: MK-801 0.2 mg/kg i.p., Nicotine-treated rats.
[15] abbreviates: MK-801 0.2 mg/kg i.p., Vehicle-treated rats.
[16] abbreviates: chronic amphetamine administration.

Each structure is given as a SMILES string. Counter-ions that a name gives are not always drawn. Like-named read-outs stand apart in the source and are kept apart here.

For the compound `C[C@]12N[C@H](Cc3ccccc31)c1ccccc12` [MK-801, (5R,10S)-(+)-5-Methyl-10,11-dihydro-5H-dibenzo(a,d)cyclohepten-5,10-imine hydrogen maleate], the “ICSS Thresholds” value in data set [1] (setting [4]) is on record as 98.20 ± 6.1 percentage of baseline; in data set [1] (setting [5]), 95.99 ± 3.3 percentage of baseline; in data set [1] (setting [6]), 93.09 ± 3.9 percentage of baseline; in data set [1] (setting [7]), 92.54 ± 2.6 percentage of baseline; in data set [1] (setting [8]), 89.42 ± 3.6 percentage of baseline; in data set [1] (setting [9]) it was 88.48 ± 5.6 percentage of baseline. For the same compound, the “ICSS Thresholds” value is given as 76.24 ± 4.7 percentage of baseline in data set [1] (setting [10]); 87.14 ± 4.6 percentage of baseline in data set [1] (setting [11]); 82.26 ± 3.7 percentage of baseline in data set [1] (setting [12]); 93.64 ± 3.4 percentage of baseline in data set [1] (setting [13]); 84.29 ± 3.0 percentage of baseline in data set [1] (setting [14]); 82.47 ± 4.3 percentage of baseline in data set [1] (setting [15]). Moreover, the “ICSS response Latencies” value in data set [1] (setting [4]) is recorded as 95.41 ± 2.3 percentage of baseline; in data set [1] (setting [5]), 100.00 ± 2.5 percentage of baseline; in data set [1] (setting [6]), 94.64 ± 3.6 percentage of baseline; in data set [1] (setting [7]), 103.14 ± 2.1 percentage of baseline; in data set [1] (setting [8]), 106.14 ± 4.4 percentage of baseline; in data set [1] (setting [9]), 98.97 ± 3.9 percentage of baseline. Also, the “ICSS response Latencies” value in data set [1] (setting [10]) is recorded as 93.65 ± 3.6 percentage of baseline; in data set [1] (setting [11]) it was 101.60 ± 2.0 percentage of baseline; in data set [1] (setting [12]) it was 93.56 ± 4.2 percentage of baseline; in data set [1] (setting [13]), 119.22 ± 11.9 percentage of baseline; in data set [1] (setting [14]), 105.14 ± 1.9 percentage of baseline; in data set [1] (setting [15]), 119.21 ± 9.4 percentage of baseline. Also, the ICSS response Latencies result in data set [1] (MK-801, p<0.05, particularly in control rats) was “did significantly increase response latencies”. The ICSS reward thresholds result in data set [1] (MK-801 0.01-0.2 mg/kg) is “lowered reward thresholds in nicotine-treated and control rats”. In data set [1] (MK-801, nicotine-treated rats), the “withdrawal-like elevations in reward thresholds” value is “did not precipitate withdrawal-like elevations in reward thresholds in nicotine-treated rats at any dose tested”. Besides, the “Doses causing disruption in performance in the ICSS paradigm” value in data set [1] (both groups, rats no longer responded for self-stimulation) is listed as no less than 0.2 mg/kg.

With `COC(=O)[C@H]1[C@@H](OC(=O)c2ccccc2)C[C@@H]2CC[C@H]1N2C.Cl` [cocaine, Cocaine hydrochloride], the ICSS response Latencies entry in data set [2] (cocaine 10 mg/kg) was “significantly decreased ICSS response latencies”. For the same compound, the ICSS Thresholds result in data set [2] (cocaine 10 mg/kg i.p.) was “significantly lowered ICSS thresholds”. In data set [2] (cocaine 10 mg/kg, at 10 and 40 min after cocaine injection), the “ICSS thresholds, time course” value was “significantly lowered in cocaine-treated rats, pretreated with vehicle”.

Regarding `NS(=O)(=O)c1cccc2c1c([N+](=O)[O-])cc1[nH]c(=O)c(=O)[nH]c12.[Na].[Na]` [NBQX, 2,3-dioxo-6-nitro-1,2,3,4-tetrahydrobenzo(f)quinoxaline-7-sulphonamide disodium], the ICSS response Latencies result in data set [1] (NBQX 0.01-1 mg/kg) is recorded as “had no effect on response latencies in nicotine-treated or control rats at any dose tested”. Besides, the ICSS reward thresholds result is given as “significantly altered ICSS reward thresholds in nicotine-treated but not control rats” in data set [1] (NBQX 0.01-1 mg/kg); “elevated reward thresholds in nicotine-treated rats” in data set [1] (NBQX 0.025-0.1 mg/kg, nicotine-treated rats); “did not significantly increase thresholds compared to vehicle treatment” in data set [1] (NBQX 0.5-1 mg/kg, nicotine-treated rats).

Regarding `C[C@H](N)Cc1ccccc1` [amphetamine, d-Amphetamine sulfate], the “reward thresholds during amphetamine withdrawal” value in data set [3] (amphetamine-exposed rats treated with vehicle) was “exhibited elevated thresholds at withdrawal hours 12, 36, 42, 60 and 84”. Besides, in data set [3] (setting [16]), the body weight result was “significantly reduced the body weight of animals” and the response latencies entry was “did not significantly differ from those of the saline-exposed rats at any stage during chronic drug treatment”. For the same compound, the reward thresholds entry in data set [3] (chronic amphetamine administration, four day treatment, 1-5 mg/kg three times a day) is “significantly elevated thresholds”.
